Data: article PMC5317004 (Scientific Reports, 2017)
“And” between values parts separate entries of the source, which are not always exact repeats. Equal values may be shown once.

Legend:
α7-nAChR = conditions: cited from earlier work
[1] = LUVs 6 mM, 5 minutes incubation plus 20-minutes ultracentrifugation; depending on the LUVs' lipid composition; cited from earlier work
[2] = Time-dependent IVM partitioning into the CHO cell membrane (removal from aqueous phase, absorbance at 245 nm); assay type: physicochemical, Chinese hamster; conditions: 4 μM IVM, 140,000 CHO cells in 1 ml
Experimental: Figure 7 Recovery of ACh-evoked currents in the absence or presence of IVM. […] (B) Representative currents for the same experiment as in A, but with IVM (0.5 μM) added after peak IP1. Currents in A and B were measured at −60 mV. […] Red bars correspond to ACh-elicited currents where IVM was added as in panel B (N = 5). Error bars correspond to SEM. Asterisks correspond to unpaired, two-tailed Student’s t-tests with 0.001 < *P < 0.05, 0.0001 < **P < 0.001 and ***P < 0.0001. (D) Fractional removal of IVM from the aqueous phase of a 1-ml solutions containing 140,000 CHO cells and 4 μM IVM. Removal of IVM was determined following the indicated incubation times by measuring the absorbance of supernatants at 245 nm wavelength (e.g., Supplementary Fig. S3; Supplementary Materials and Methods). Note that, no IVM removal is indicated at the top of the y-axis. […]
To assess the IVM partitioning into the CHO cell plasma membrane during a short time period, we followed the procedure of Silberberg et al.[58] with a few modifications accounting for our experimental conditions. To this end, we incubated 140,000 CHO cells (correspond to 3.2 μM plasma membrane lipids[121]) with 4 μM IVM for either 0, 15 or 300 seconds, pelleted the cells by a brief centrifugation (30 seconds), and analyzed the extent of IVM removal from the aqueous solution (elaborated in the Supplementary Materials and Methods). […]

## CC[C@H](C)[C@H]1O[C@]2(CC[C@@H]1C)C[C@@H]1C[C@@H](C/C=C(\C)[C@@H](O[C@H]3C[C@H](OC)[C@@H](O[C@H]4C[C@H](OC)[C@@H](O)[C@H](C)O4)[C@H](C)O3)[C@@H](C)/C=C/C=C3\CO[C@@H]4[C@H](O)C(C)=C[C@@H](C(=O)O1)[C@]34O)O2 [IVM, Ivermectin]
α7-nAChR
  decrease of the ACh-EC50 by IVM: 20 fold
[1]
  depletion of IVM from the aqueous solution: 50% and 70%
[2]; 15 seconds of incubation
  IVM removed from the aqueous solution by the CHO cells: no statistically significant amount
[2]; 5 minutes of incubation
  IVM removed from the aqueous solution by the CHO cells: ~24%
